Structures can show the parent of a compound that is named as a salt.
Experiments:
[1] = system: YNH-1; experiment: Cell proliferation inhibition assay (CCK8 method); type: cell-based; settings: CD44-negative YNH-1
[2] = system: MV4-11 cells; experiment: Apoptosis, AnnexinV/PI flow cytometry; type: cell-based; settings: VCR 10 ng/mL
Experimental: A6-cPS-VCR-targeted polymer vesicle nanomedicine induces apoptosis and cell cycle: First, MV4-11 cells were plated in a 24-well plate at a density of 2 × 10^5 cells/well and cultured for 24 hours. 20 µL of A6-cPS-VCR, cPS-VCR or VCR (concentration of VCR was 10 ng/mL) was added, respectively, and 20 µL of PBS was added to the control group. After 4 hours of incubation, the supernatant was removed by centrifugation (3000 rpm, 10 minutes), then fresh RPMI-1640 complete medium was added, the cells were blown off and placed in the incubator for a further 44 hours. Cells were collected in a flow tube, centrifuged (800 rpm, 5 min) and washed twice with 4° C. cold PBS. Finally, 200 µL of binding buffer was added to resuspend the cells. After pipetting evenly, taken 100 µL of it into the flow tube, added 5 µL of AnnexinV-F647 and 10 µL of PI solution in sequence, and stain at room temperature for 15 minutes in the dark, then add 400 µL of PBS and mix evenly to stop the staining, and detection by a flow cytometer within 1 hour. Among them, the cells that were treated in a 50° C. water bath for 5 minutes and fixed with 4% paraformaldehyde for 5 minutes were added with 5 µL of AnnexinV-F647 solution and 10 µL of PI solution for staining for 15 minutes respectively. Cytometer for testing.

[3] = system: OCI-AML-3; experiment: Cell proliferation inhibition assay (CCK8 method); type: cell-based; settings: CD44-negative OCI-AML-3
[4] = system: orthotopic MV4-11-GFP-Luc-bearing mice; experiment: Antitumor effect of A6-cPS-VCR in orthotopic AML model; type: in vivo
Experimental: (§1) Construction of an in situ MV4-11-GFP-Luc acute myeloid leukemia mouse model: All animal experiments and operations were approved by the Experimental Animal Center of Soochow University and the Animal Care and Use Committee of Soochow University. […] Mice were first irradiated with X-rays (2.0 Gy), then the antibody CD122 (10 mg/kg mouse) was injected intraperitoneally, and 6 hours later, MV4-11-GFP-Luc cells (1×10^5 cells/mouse) injected into mice by tail vein. After inoculation, the proliferation and proliferation of leukemia cells in mice were observed by in vivo imaging of small animals (FIG. 12).
Antitumor effect of A6-cPS-VCR in orthotopic MV4-11-GFP-Luc-bearing mice: To study the antitumor effect of A6-cPS-VCR on orthotopic MV4-11-GFP-Luc bearing mice Tumor effect, the following treatment plan was designed (FIG. 14): the first injection was injected on the 6th day after the inoculation, which was counted as the 0th day, and the second injection was given on the 2nd day. The dose of VCR was 0.50 mg/kg, and the control group was injected with 100 µL PBS. There were 10 tumor-bearing mice in each group. […] Mice lose weight before dying. […] And cPS-VCR (11 days), prolonged 1.5-2.7 times.
In order to further accurately and quantitatively analyze the proliferation of leukemia cells in mice, on the 4th day, 3 mice in each group were randomly selected for dissection, and the leukocytes in the liver, spleen and bone marrow were extracted, and the content of leukemia cells was detected by flow cytometry. And the liver, spleen and bone marrow slices were analyzed to observe the damage.
Acute myeloid leukemia cells abnormally proliferate in the bone marrow of mice, resulting in osteolytic lesions in mice. Therefore, micro-CT was used to evaluate the relevant indexes of the femur of each group of mice.

[5] = system: MV4-11 cells; experiment: Cell cycle, PI flow cytometry; type: cell-based; settings: VCR 10 ng/mL
Experimental: The cell culture and treatment of the cell cycle experiment of A6-cPS-VCR refer to the above method, and only add 1 mL of PBS to resuspend the cells at the end. Then, 4 mL of ice 95% ethanol was added to fix the cells for 12 hours, and 400 µL of PI staining solution was added for 30 minutes in the dark on a shaker at 37° C. Finally, the cells were tested by flow cytometry.

[6] = system: orthotopic MV4-11-GFP-Luc-bearing mice; experiment: Antitumor effect of A6-cPS-DNR in orthotopic AML model; type: in vivo; settings: DNR 2 mg/kg
Experimental: as §1
Antitumor effect of A6-cPS-DNR in orthotopic MV4-11-GFP-Luc-bearing mice: To study the antitumor effect of A6-cPS-DNR on orthotopic MV4-11-GFP-Luc-bearing mice Tumor effect (refer to Example 11 for the design scheme). The DNR dose was 2 mg/kg, and A6-cPS-DNR was increased by 3 mg/kg in a high-dose group. The blank control group was injected with 100 µL PBS. There were 3 tumor-bearing mice in each group.

SMILES	proliferation inhibition [1]	apoptosis [2] [%]	proliferation inhibition [3]	leukemia levels in the liver, spleen and bone marrow, flow cytometry ([4]; 4th day, 3 mice per group)	median survival time ([4]; VCR 0.50 mg/kg) [days]	proliferation of MV4-11-GFP-Luc cells, bioluminescence imaging ([4]; VCR 0.50 mg/kg, injections day 0 and day 2)	effect on cell cycle [5]	fluorescence quantification, bioluminescence imaging [6]
CC[C@]1(O)C[C@H]2CN(CCc3c([nH]c4ccccc34)[C@@](C(=O)OC)(c3cc4c(cc3OC)N(C=O)[C@H]3[C@@](O)(C(=O)OC)[C@H](OC(C)=O)[C@]5(CC)C=CCN6CC[C@]43[C@@H]65)C2)C1 [VCR, vincristine sulfate]	no significant difference	16.7	no significant difference	reduced	9	proliferated slowly during drug administration, but proliferated rapidly after drug withdrawal	arresting cells in G2/M phase	–
COc1cccc2c1C(=O)c1c(O)c3c(c(O)c1C2=O)C[C@@](O)(C(C)=O)C[C@@H]3O[C@H]1C[C@H](N)[C@H](O)[C@H](C)O1 [DNR, daunorubicin]	–	–	–	–	–	–	–	decreased slightly
